Like-named read-outs stand apart in the source and are kept apart here.
Legend:
[1] = test system: Aβ 40 in conditioned medium of cells stably expressing Amyloid Precursor Protein (APP); assay: In vitro BACE cell-based assay (Aβ 40 sandwich ELISA); conditions: Homo sapiens, HEK293
In short: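 Aβ40 in conditioned medium measured by pAb40/biotin-6E10 sandwich ELISA with time-resolved europium fluorescence, after 24 h exposure of stable APP cells to compounds (10-point series starting 100 μM or 10 μM; 0.1% DMSO). IC50 fitted from percent of control against concentration.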

Cathepsin D (Cat D) = Cathepsin D (Cat D) (Homo sapiens, UniProt P07339); assay: In vitro enzymatic Cathepsin D (Cat D) FRET assay; assay type: biochemical
Cathepsin D (Cat D), sequence (P07339 65-412, species assumed): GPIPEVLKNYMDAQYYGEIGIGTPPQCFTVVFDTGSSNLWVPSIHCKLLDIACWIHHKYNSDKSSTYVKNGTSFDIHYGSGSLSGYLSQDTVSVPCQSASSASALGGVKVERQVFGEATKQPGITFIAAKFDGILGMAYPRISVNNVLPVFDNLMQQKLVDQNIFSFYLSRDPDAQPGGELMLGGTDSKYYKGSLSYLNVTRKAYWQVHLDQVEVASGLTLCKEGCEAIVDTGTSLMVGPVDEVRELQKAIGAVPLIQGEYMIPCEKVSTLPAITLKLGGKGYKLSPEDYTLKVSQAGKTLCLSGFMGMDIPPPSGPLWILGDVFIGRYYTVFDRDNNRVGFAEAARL
In short: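 FRET peptide substrate (20 nM) is cleaved by CHO-derived recombinant enzyme (9 nM) for 1 h after a 1 h inhibitor pre-incubation, at pH 3.5 in citrate buffer with 5 mM CHAPS and 10% DMSO. Tris addition ends the reaction; fluorescence measured at 500 nm excitation, 580 nm emission.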

[2] = biological target: Beta Secretase enzyme (BACE) (Homo sapiens, UniProt P56817); assay: In vitro enzymatic BACE FRET assay; assay type: biochemical; conditions: read-out: BACE1 FRET assay IC50
Beta Secretase enzyme (BACE), sequence (P56817 46-501): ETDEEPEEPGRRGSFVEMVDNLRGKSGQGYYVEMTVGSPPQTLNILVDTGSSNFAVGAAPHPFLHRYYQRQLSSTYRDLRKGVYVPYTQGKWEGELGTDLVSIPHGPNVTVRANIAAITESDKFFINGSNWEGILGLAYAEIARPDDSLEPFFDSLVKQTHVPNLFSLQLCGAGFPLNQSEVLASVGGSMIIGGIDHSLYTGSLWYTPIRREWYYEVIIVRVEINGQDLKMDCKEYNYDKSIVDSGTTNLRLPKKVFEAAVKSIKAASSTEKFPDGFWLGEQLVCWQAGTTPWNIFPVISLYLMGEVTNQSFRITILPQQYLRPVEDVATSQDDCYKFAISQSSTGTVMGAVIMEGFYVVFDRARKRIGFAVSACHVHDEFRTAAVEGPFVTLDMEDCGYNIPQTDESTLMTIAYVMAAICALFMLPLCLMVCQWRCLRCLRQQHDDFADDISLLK
In short: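 Cleavage of a quenched 50 nM FRET peptide substrate, read as fluorescence (excitation 488 nm, […]) after 1 h and Tris quench to neutrality. Buffer: 0.05 M acetate pH 4.2 with 10% DMSO and 100 uM genapol. Inhibitor dilutions were pre-incubated 1 h with 0.2 nM enzyme.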

[3] = average IC50, HEK cell assay, Aβ 40 readout
[4] = Cathepsin D FRET assay, read-out: CatD IC50
[5] = average IC50, in vitro enzymatic BACE FRET assay
[6] = text summary referring to data in Table 2

Compound	IC50 ([1]; HEK cells, average IC50)	IC50 (Cathepsin D (Cat D); read-out: CatD IC50)	IC50 ([2]; average IC50)	IC50 [1, 3]	IC50 (Cathepsin D (Cat D); [4])	IC50 [2, 5]	IC50 ([1]; HEK cell, average IC50)	IC50 (Cathepsin D (Cat D); [6])
Cc1cc(C(F)(F)F)cnc1C(=O)Nc1ccc2c(c1)[C@@]1(C)N=C(N)C(C)(C)S(=O)(=O)[C@@H]1CCO2 [Example 188, N-((4aR,11bR)-2-amino-3,3,11b-trimethyl-4,4-dioxido-4a,5,6,11b-tetrahydro-3H-[1]benzoxepino[4,5-b][1,4]thiazin-10-yl)-3-methyl-5-(trifluoromethyl)-2-pyridinecarboxamide]	0.003 µM	1550 µM	0.008 µM	–	–	–	–	–
COc1cnc(C(=O)Nc2ccc3c(c2)[C@@]2(CF)N=C(N)C(C)(C)S(=O)(=O)[C@H]2C[C@H](C)O3)cn1 [Example 108, N-((4aS,6S,11bS)-2-amino-11b-(fluoromethyl)-3,3,6-trimethyl-4,4-dioxido-4a,5,6,11b-tetrahydro-3H-[1]benzoxepino[4,5-b][1,4]thiazin-10-yl)-5-methoxy-2-pyrazinecarboxamide]	–	–	–	0.018 µM	388 µM	0.013 µM	–	–
CC#CCOc1cnc2c(Nc3ccc4c(c3)C3(C)N=C(N)C(C)(C)S(=O)(=O)C3CCO4)nccc2c1 [Example 182, (4aR,11bR)-N^~10^~-(3-(2-butyn-1-yloxy)-1,7-naphthyridin-8-yl)-3,3,11b-trimethyl-4a,5,6,11b-tetrahydro-3H-[1]benzoxepino[4,5-b][1,4]thiazine-2,10-diamine 4,4-dioxide]	0.014 µM	> 400 µM	0.003 µM	–	–	–	–	–
Cc1cc(Cl)cnc1C(=O)Nc1ccc2c(c1)[C@]1(C)N=C(N)C(C)(C)S(=O)(=O)[C@H]1CCO2 [Example 17, N-((4aS,11bS)-2-amino-3,3,11b-trimethyl-4,4-dioxido-4a,5,6,11b-tetrahydro-3H-benzo[6,7]oxepino[4,5-b][1,4]thiazin-10-yl)-5-chloro-3-methylpicolinamide]	–	> 400 µM	1.46 µM	–	–	–	0.833 µM	–
CC1(C)C(N)=N[C@]2(C)c3cc(NC(=O)c4cnc(OCC5CC5)cn4)ccc3OCC[C@H]2S1(=O)=O [Example 88, N-((4aR,11bR)-2-amino-3,3,11b-trimethyl-4,4-dioxido-4a,5,6,11b-tetrahydro-3H-benzo[6,7]oxepino[4,5-b][1,4]thiazin-10-yl)-5-(cyclopropylmethoxy)pyrazine-2-carboxamide]	–	–	–	0.044 µM	745 µM	0.01 µM	–	–
Cc1cc(Cl)cnc1C(=O)Nc1ccc2c(c1)[C@@]1(C)N=C(N)C(C)(C)S(=O)(=O)[C@H]1C[C@@H](C)O2 [Example 181, N-((4aS,6R,11bR)-2-amino-3,3,6,11b-tetramethyl-4,4-dioxido-4a,5,6,11b-tetrahydro-3H-[1]benzoxepino[4,5-b][1,4]thiazin-10-yl)-5-chloro-3-methyl-2-pyridinecarboxamide]	0.0008 µM	124 µM	0.001 µM	–	–	–	–	–
Cc1cc(C#N)cnc1C(=O)Nc1ccc2c(c1)[C@@]1(C)N=C(N)C(C)(C)S(=O)(=O)[C@@H]1C[C@H](C)O2 [Example 57, N-((4aR,6S,11bR)-2-amino-3,3,6,11b-tetramethyl-4,4-dioxido-4a,5,6,11b-tetrahydro-3H-[1]benzoxepino[4,5-b][1,4]thiazin-10-yl)-5-cyano-3-methyl-2-pyridinecarboxamide]	–	1460 µM	0.002 µM	–	–	–	0.0007 µM	> 1200 µM
CC#CC(C)Oc1cnc(C(=O)Nc2ccc3c(c2)[C@@]2(C)N=C(N)C(C)(C)S(=O)(=O)[C@@H]2CCO3)cn1 (mixture of isomers) [Example 14, N-((4aR,11bR)-2-amino-3,3,11b-trimethyl-4,4-dioxido-4a,5,6,11b-tetrahydro-3H-[1]benzoxepino[4,5-b][1,4]thiazin-10-yl)-5-(((1R)-1-methyl-2-butyn-1-yl)oxy)-2-pyrazinecarboxamide,N-((4aR,11bR)-2-amino-3,3,11b-trimethyl-4,4-dioxido-4a,5,6,11b-tetrahydro-3H-[1]benzoxepino[4,5-b][1,4]thiazin-10-yl)-5-(((1S)-1-methyl-2-butyn-1-yl)oxy)-2-pyrazinecarboxamide]	–	689 µM	0.005 µM	–	–	–	0.001 µM	–
Cc1c(C(=O)Nc2ccc3c(c2)[C@@]2(C)N=C(N)C(C)(C)S(=O)(=O)[C@@H]2CCO3)nc2ccc(Cl)cn12 [Example 28, N-((4aR,11bR)-2-amino-3,3,11b-trimethyl-4,4-dioxido-4a,5,6,11b-tetrahydro-3H-[1]benzoxepino[4,5-b][1,4]thiazin-10-yl)-6-chloro-3-methylimidazo[1,2-a]pyridine-2-carboxamide]	–	> 400 µM	0.028 µM	–	–	–	0.008 µM	–
COCCOc1cnc2c(Nc3ccc4c(c3)[C@@]3(C)N=C(N)C(C)(C)S(=O)(=O)[C@@H]3C[C@H](C)O4)nccc2n1 [Example 139, (4aR,6S,11bR)-N^~10^~-(2-(2-methoxyethoxy)pyrido[3,4-b]pyrazin-5-yl)-3,3,6,11b-tetramethyl-4a,5,6,11b-tetrahydro-3H-[1]benzoxepino[4,5-b][1,4]thiazine-2,10-diamine 4,4-dioxide]	–	–	–	0.008 µM	304 µM	0.007 µM	–	–
CC1(C)C(N)=N[C@]2(C)c3cc(Nc4nccc5cc(C#N)cnc45)ccc3OCC[C@H]2S1(=O)=O [Example 168, 8-(((4aR,11bR)-2-amino-3,3,11b-trimethyl-4,4-dioxido-4a,5,6,11b-tetrahydro-3H-[1]benzoxepino[4,5-b][1,4]thiazin-10-yl)amino)-1,7-naphthyridine-3-carbonitrile]	0.003 µM	> 44.4 µM	0.002 µM	–	–	–	–	–
CC#C[C@H](C)Oc1cnc(C(=O)Nc2ccc3c(c2)[C@@]2(C)N=C(N)C(C)(C)S(=O)(=O)[C@@H]2CCO3)cn1 [Example 15, N-((4aR,11bR)-2-amino-3,3,11b-trimethyl-4,4-dioxido-4a,5,6,11b-tetrahydro-3H-[1]benzoxepino[4,5-b][1,4]thiazin-10-yl)-5-(((1S)-1-methyl-2-butyn-1-yl)oxy)-2-pyrazinecarboxamide]	–	1970 µM	0.003 µM	–	–	–	0.0005 µM	> 1200 µM
Cc1cc(COc2cnc3c(Nc4ccc5c(c4)[C@@]4(C)N=C(N)C(C)(C)S(=O)(=O)[C@@H]4C[C@H](C)O5)nccc3n2)on1 [Example 137, (4aR,6S,11bR)-3,3,6,11b-tetramethyl-N^~10^~-(2-((3-methyl-5-isoxazolyl)methoxy)pyrido[3,4-b]pyrazin-5-yl)-4a,5,6,11b-tetrahydro-3H-[1]benzoxepino[4,5-b][1,4]thiazine-2,10-diamine 4,4-dioxide]	–	–	–	0.091 µM	> 133 µM	0.018 µM	–	–
COc1cnc(C(=O)Nc2ccc3c(c2)[C@@]2(C)N=C(N)C(C)(C)S(=O)(=O)[C@@H]2CCO3)c(C)c1 [Example 158, N-((4aR,11bR)-2-amino-3,3,11b-trimethyl-4,4-dioxido-4a,5,6,11b-tetrahydro-3H-[1]benzoxepino[4,5-b][1,4]thiazin-10-yl)-5-methoxy-3-methyl-2-pyridinecarboxamide]	–	–	–	0.007 µM	> 400 µM	0.021 µM	–	–
CC1(C)C(N)=N[C@]2(C)c3cc(NC(=O)c4cnc(C(F)(F)F)cn4)ccc3OCC[C@H]2S1(=O)=O [Example 164, N-((4aR,11bR)-2-amino-3,3,11b-trimethyl-4,4-dioxido-4a,5,6,11b-tetrahydro-3H-[1]benzoxepino[4,5-b][1,4]thiazin-10-yl)-5-(trifluoromethyl)-2-pyrazinecarboxamide]	0.017 µM	1600 µM	0.028 µM	–	–	–	–	–
CC1(C)C(N)=N[C@]2(C)c3cc(NC(=O)c4ccc(OCC(F)(F)F)cn4)ccc3OCC[C@H]2S1(=O)=O [Example 97, N-((4aR,11bR)-2-amino-3,3,11b-trimethyl-4,4-dioxido-4a,5,6,11b-tetrahydro-3H-[1]benzoxepino[4,5-b][1,4]thiazin-10-yl)-5-(2,2,2-trifluoroethoxy)-2-pyridinecarboxamide]	–	–	–	0.069 µM	974 µM	0.022 µM	–	–
CC1(C)C(N)=N[C@]2(C)c3cc(Nc4ncccc4C#N)ccc3OCC[C@H]2S1(=O)=O [Example 7, 2-(((4aR,11bR)-2-amino-3,3,11b-trimethyl-4,4-dioxido-4a,5,6,11b-tetrahydro-3H-[1]benzoxepino[4,5-b][1,4]thiazin-10-yl)amino)-3-pyridinecarbonitrile]	–	252 µM	0.116 µM	–	–	–	0.124 µM	–
COc1cnc2c(Nc3ccc4c(c3)[C@@]3(CF)N=C(N)C(C)(C)S(=O)(=O)[C@@H]3CCO4)nccc2n1 [Example 151, (4aR,11bS)-11b-(fluoromethyl)-N^~10^~-(2-methoxypyrido[3,4-b]pyrazin-5-yl)-3,3-dimethyl-4a,5,6,11b-tetrahydro-3H-[1]benzoxepino[4,5-b][1,4]thiazine-2,10-diamine 4,4-dioxide]	–	–	–	0.068 µM	> 400 µM	0.037 µM	–	–

From US9309263B2, “Fused multi-cyclic sulfone compounds as inhibitors of beta-secretase and methods of use thereof” (AMGEN INC., priority 2013, dated 2016)
